From ChEMBL document CHEMBL1125524, “Adenosine A1 antagonists. 2. Structure-activity relationships on diuretic activities and protective effects against acute renal failure” (J Med Chem, 1992)

Legend:
Rattus norvegicus [1] = assay: Ratio of sodium ion/potassium ion concentration in treated rats to that in control rats, at a peroral dose of 0.01 mg/Kg; type: functional
Rattus norvegicus [2] = assay: Ratio of sodium ion/potassium ion concentration in treated rats to that in control rats, at a peroral dose of 0.1 mg/Kg; type: functional
Rattus norvegicus [3] = assay: Urea nitrogen concentration measured after intraperitoneal administration of 1 mg/kg of compound to rats(vehicle 143.9+/-12.2); type: functional
Adenosine A2 receptor = Adenosine A2 receptor (Rattus norvegicus, UniProt P29276+P30543)
Rattus norvegicus [4] = assay: Effect on urinary excretion potassium and sodium after oral administration of 0.01 mg/kg to rats(potassium and sodium excretion in control rat is 0.191+/-0.020); type: functional, Urine
Rattus norvegicus [5] = assay: Ratio of urinary excretion value (urinary volume) in treated rats to that in control rats, at a peroral dose of 0.1 mg/Kg; type: functional, Urine
Rattus norvegicus [6] = assay: Serum creatinine concentration measured after intraperitoneal administration of 1 mg/kg of compound to rats(vehicle 5.08+/-0.14); type: functional
Rattus norvegicus [7] = assay: Serum creatinine concentration measured after intraperitoneal administration of 1 mg/kg of compound to rats(vehicle 4.09+/-0.39); type: functional
Rattus norvegicus [8] = assay: Oral diuretic activity was measured after oral administration of 1.6 mg/kg to rats(control volume is 0.93+/-0.03); type: functional, Urine
Rattus norvegicus [9] = assay: Ratio of urinary excretion value (Na+ concentration) in treated rats to that in control rats, at a peroral dose of 0.1 mg/Kg; type: functional, Urine
Rattus norvegicus [10] = assay: Urea nitrogen concentration measured after intraperitoneal administration of 1 mg/kg of compound to rats(vehicle 165.3+/-4); type: functional
Rattus norvegicus [11] = assay: Urea nitrogen concentration measured after intraperitoneal administration of 1 mg/kg of compound to rats(vehicle 171.3+/-6.4); type: functional
Rattus norvegicus [12] = assay: Serum creatinine concentration measured after intraperitoneal administration of 1 mg/kg of compound to rats(vehicle 6.90+/-0.2); type: functional
Rattus norvegicus [13] = assay: Ratio of urinary excretion value (urinary volume) in treated rats to that in control rats, at a peroral dose of 1.6 mg/Kg; type: functional, Urine
Rattus norvegicus [14] = assay: Ratio of urinary excretion value (Na+ concentration) in treated rats to that in control rats, at a peroral dose of 1.6 mg/Kg; type: functional, Urine
Rattus norvegicus [15] = assay: Effect on urinary excretion potassium and sodium after oral administration of 0.1 mg/kg to rats(potassium and sodium excretion in control rat is 0.179+/-0.038); type: functional, Urine
Rattus norvegicus [16] = assay: Ratio of urinary excretion value (Na+ concentration) in treated rats to that in control rats, at a peroral dose of 0.01 mg/Kg; type: functional, Urine
Rattus norvegicus [17] = assay: Oral diuretic activity was measured after oral administration of 0.1 mg/kg to rats(control volume is 0.75+/-0.12); type: functional, Urine
Rattus norvegicus [18] = assay: Ratio of urinary excretion value (urinary volume) in treated rats to that in control rats, at a peroral dose of 0.01 mg/Kg; type: functional, Urine
Rattus norvegicus [19] = assay: Effect on urinary excretion potassium and sodium after oral administration of 1.6 mg/kg to rats(potassium and sodium excretion in control rat is 0.173+/-0.015); type: functional, Urine
Rattus norvegicus [20] = assay: Oral diuretic activity was measured after oral administration of 0.01 mg/kg to rats(control volume is 1.15+/-0.17); type: functional, Urine
Rattus norvegicus [21] = assay: Ratio of sodium ion/potassium ion concentration in treated rats to that in control rats, at a peroral dose of 1.6 mg/Kg; type: functional

CC(C)Cn1c(=O)n(C)c(=O)c2[nH]c(C(C3CC3)C3CC3)nc21
Na+/K+ (Rattus norvegicus [1]): 1.09
Na+/K+ (Rattus norvegicus [2]): 2.13
UN (Rattus norvegicus [3]): 150.7 mg/dL
Ki (Adenosine A2 receptor): 410 nM
Na (Rattus norvegicus [4]): 0.212 m equiv 6hr-1 100g-1
T/C (Rattus norvegicus [5]): 1.68
Cr (Rattus norvegicus [6]): 3.29 mg/dL
Cr (Rattus norvegicus [7]): 4.28 mg/dL
Urine volume (Rattus norvegicus [8]): 1.93 ml 6hr-1 100g-1
T/C (Rattus norvegicus [9]): 1.4
UN (Rattus norvegicus [10]): 122 mg/dL
UN (Rattus norvegicus [11]): 110.7 mg/dL
Cr (Rattus norvegicus [12]): 3.97 mg/dL
T/C (Rattus norvegicus [13]): 2.08
T/C (Rattus norvegicus [14]): 1.99
Na (Rattus norvegicus [15]): 0.25 m equiv 6hr-1 100g-1
T/C (Rattus norvegicus [16]): 1.11
Urine volume (Rattus norvegicus [17]): 1.26 ml 6hr-1 100g-1
T/C (Rattus norvegicus [18]): 1
Na (Rattus norvegicus [19]): 0.345 m equiv 6hr-1 100g-1
Urine volume (Rattus norvegicus [20]): 1.15 ml 6hr-1 100g-1
Na+/K+ (Rattus norvegicus [21]): 1.37
